target: T1, HER2 (Homo sapiens, UniProt P04626); assay: Inhibition of HER2 phosphorylation in Calu3 tumor cell line; assay type: cell-based; settings: Calu-3; compound concentration 1 μM; Calu3 cells, 16 h incubation; pY 1248 in HER2; percentage of the DMSO treated control; read-out: Percent inhibition of HER2-phosphorylation
T1 construct: endogenous in cells; host or cells: Calu3 tumor cell line
Description: Inhibition of HER2 Phosphorylation in Calu3 Tumor Cell Line
2×10^5 Calu3 cells per well were plated in a 12-well plate. After 4 days cells were starved for 16 h in DMEM(Dulbecco's Modified Eagle Medium)/0.5% FCS(Fetal Calf Serum)/1% Glutamine. During this time cells were incubated with 1 μM of the compound. Afterwards cells were lysed in lyses buffer containing 1% Triton, 10% Glycerol, 1 mM EGTA, 1.5 mM MgCl2, 150 mM NaCl, 50 mM Hepes pH 7.5, 1 mM PMSF, 10 μg/mL Aprotinin and […] Orthovanadate. Cell lysates were analyzed on a SDS PAGE and after transfer to a nitrocellulose membrane detected with an antibody specifically recognizing the pY 1248 in HER2. Inhibition of HER2 phosphorylation is calculated as percentage of the DMSO treated control. This percentage is calculated according to the following formula: Inhibition in %=100−(Phosphorylated-HER2-Signal of Test Sample*100/Phosphorylated-HER2-Signal DMSO-control).

T1 sequence (P04626 23-1255): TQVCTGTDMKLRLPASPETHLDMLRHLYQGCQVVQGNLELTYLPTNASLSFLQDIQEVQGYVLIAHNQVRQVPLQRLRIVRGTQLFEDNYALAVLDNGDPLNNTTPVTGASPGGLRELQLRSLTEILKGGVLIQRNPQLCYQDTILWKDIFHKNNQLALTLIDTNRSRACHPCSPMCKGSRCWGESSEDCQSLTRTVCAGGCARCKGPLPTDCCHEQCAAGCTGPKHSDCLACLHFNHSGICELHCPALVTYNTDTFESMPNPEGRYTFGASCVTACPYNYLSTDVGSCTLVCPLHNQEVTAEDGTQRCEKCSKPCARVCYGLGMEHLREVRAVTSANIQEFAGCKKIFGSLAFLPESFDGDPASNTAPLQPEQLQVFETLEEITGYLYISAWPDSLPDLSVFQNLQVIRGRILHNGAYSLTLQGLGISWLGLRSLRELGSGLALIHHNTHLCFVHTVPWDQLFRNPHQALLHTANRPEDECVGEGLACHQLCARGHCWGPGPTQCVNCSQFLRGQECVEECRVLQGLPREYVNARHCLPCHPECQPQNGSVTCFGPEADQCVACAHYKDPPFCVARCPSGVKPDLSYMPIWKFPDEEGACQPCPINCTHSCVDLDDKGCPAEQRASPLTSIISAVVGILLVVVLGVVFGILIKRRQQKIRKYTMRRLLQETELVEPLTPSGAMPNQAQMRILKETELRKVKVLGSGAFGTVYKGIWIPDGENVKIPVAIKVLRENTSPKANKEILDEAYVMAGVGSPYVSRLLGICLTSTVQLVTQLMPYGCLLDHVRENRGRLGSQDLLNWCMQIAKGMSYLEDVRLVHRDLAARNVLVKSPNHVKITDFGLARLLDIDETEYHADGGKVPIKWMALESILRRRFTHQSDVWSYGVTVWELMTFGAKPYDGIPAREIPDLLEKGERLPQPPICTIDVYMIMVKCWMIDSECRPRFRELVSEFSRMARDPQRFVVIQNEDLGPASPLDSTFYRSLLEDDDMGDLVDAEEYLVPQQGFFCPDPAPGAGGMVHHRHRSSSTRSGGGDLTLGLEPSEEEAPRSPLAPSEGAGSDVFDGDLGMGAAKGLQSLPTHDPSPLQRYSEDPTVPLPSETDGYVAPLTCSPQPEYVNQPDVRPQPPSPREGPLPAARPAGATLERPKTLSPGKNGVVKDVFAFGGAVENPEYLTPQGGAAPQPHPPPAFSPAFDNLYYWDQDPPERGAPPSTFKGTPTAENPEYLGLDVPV

Row | inhibition at 1 µM | SMILES
1 | 72.7% | FC(F)(F)c1ccc(C=Cc2nc(COc3ncc(CCCCn4ccnn4)cn3)co2)cc1 [example 4, 5-(4-[1,2,3]Triazol-1-yl-butyl)-2-{2-[2-(4-trifluoromethyl-phenyl)-vinyl]-oxazol-4-ylmethoxy}-pyrimidine]
2 | 79.8% | FC(F)(F)c1ccc(C=Cc2nc(COc3ccc(CCCCn4ccnn4)nn3)co2)cc1 [example 2, 3-(4-[1,2,3]Triazol-1-yl-butyl)-6-{2-[2-(4-trifluoromethyl-phenyl)-vinyl]-oxazol-4-ylmethoxy}-pyridazine]
3 | 75.3% | FC(F)(F)c1ccc(C=Cc2nc(COc3cnc(CCCCn4ccnn4)cn3)co2)cc1 [example 7, 2-(4-[1,2,3]Triazol-1-yl-butyl)-5-{2-[2-(4-trifluoromethyl-phenyl)-vinyl]-oxazol-4-ylmethoxy}-pyrazine]

— patent US7179812B2, “Diazine derivatives” (Hoffmann-la Roche Inc., priority 2005, dated 2007)
